pIC50: −log10 of the molar value. Several values for one entry are separate records, joined by “and”; a condition that tells them apart may be missing. Identical values can stand only once. Counter-ions that a name gives are not always drawn.
Each molecule was assayed against DNMT1 (Homo sapiens, UniProt P26358) (assay: DNMT1 biochemical activity, breaklight assay and/or SPA assay). Details: DNMT1 BioChemical (pIC50 category), binned activity in either the breaklight or the SPA assay.
Description: DNMT1 breaklight in vitro assays were conducted in a total volume of 50 μl in a standard 384 well format, using black non-binding surface microplates (Corning 3575). […] Negative control wells used 5 μl of DNMT1 and 5 μl of oligonucleotide but 0 μM SAM. All reagents were made up in 1× assay buffer (20 mM Tris pH 6.8, 25 mM NaCl, 0.5 mM MgCl2, 0.01% Triton X100 and 1 mM DTT). The reaction was incubated at 26° C. for 45 min and then stopped with the addition of 40 μl detection reagent. Detection reagent, made up in 1× Gla assay buffer (20 mM Tris pH 8.0, 80 mM NaCl, 0.75 mM MgCl2, 0.01% Triton X100 and 1 mM DTT) has a final concentration of 100 μM SAH (Sigma #A9384) and 0.0008 units/μl Gla1 restriction endonuclease (Sibenzyme #E494). Following addition of the detection reagent the plate was incubated in the dark at room temperature for 5 hr. Fluorescence intensity was then measured on the PHERAstar FS (BMG Labtech) at Ex 485 nm and Em 520 nm, with a gain of 400 and an integration time of 100 ms.
Biochemical activity of DNMT1 analyzed using SPA technology. Plates (Griener 784075) were pre-stamped with 100 nL/well of compound (11-point, 3-fold serial dilution). […] Low control wells contained 5 μL of buffer instead of enzyme. Following a 40 minute incubation, the reaction was quenched upon the addition of 10 μL of stop mixture containing 1 mM SAM (Sigma A7007) and 2 mg/mL PEI beads (Perkin Elmer RPNQ0098). Plates were sealed, centrifuged for 1 min and then read on a Viewlux (Perkin Elmer) using the 613 nm emission filter/300 s read time following a 30 minute dark adapt. Assay conditions prior to quench consisted of 40 nM DNMT1 (601-1600, produced internally), 100 nM 3H-SAM (American Radiolabeled Chemicals ART 0288), 900 nM SAM (New England BioLabs B9003S) and 200 nM hemi methylated DNA oligonucleotide (synthesized at Integrated DNA Technologies, 5′-[…]-3′) in 50 mM HEPES (pH 8.0), 2 mM MgCl2, 1 mM DTT, 0.01% NP-40 and 0.01% BSA.
Comments • 1. […] Where a field is empty, the compound was not tested in that assay.

Sequence of DNMT1 (P26358 whole entry, looked up): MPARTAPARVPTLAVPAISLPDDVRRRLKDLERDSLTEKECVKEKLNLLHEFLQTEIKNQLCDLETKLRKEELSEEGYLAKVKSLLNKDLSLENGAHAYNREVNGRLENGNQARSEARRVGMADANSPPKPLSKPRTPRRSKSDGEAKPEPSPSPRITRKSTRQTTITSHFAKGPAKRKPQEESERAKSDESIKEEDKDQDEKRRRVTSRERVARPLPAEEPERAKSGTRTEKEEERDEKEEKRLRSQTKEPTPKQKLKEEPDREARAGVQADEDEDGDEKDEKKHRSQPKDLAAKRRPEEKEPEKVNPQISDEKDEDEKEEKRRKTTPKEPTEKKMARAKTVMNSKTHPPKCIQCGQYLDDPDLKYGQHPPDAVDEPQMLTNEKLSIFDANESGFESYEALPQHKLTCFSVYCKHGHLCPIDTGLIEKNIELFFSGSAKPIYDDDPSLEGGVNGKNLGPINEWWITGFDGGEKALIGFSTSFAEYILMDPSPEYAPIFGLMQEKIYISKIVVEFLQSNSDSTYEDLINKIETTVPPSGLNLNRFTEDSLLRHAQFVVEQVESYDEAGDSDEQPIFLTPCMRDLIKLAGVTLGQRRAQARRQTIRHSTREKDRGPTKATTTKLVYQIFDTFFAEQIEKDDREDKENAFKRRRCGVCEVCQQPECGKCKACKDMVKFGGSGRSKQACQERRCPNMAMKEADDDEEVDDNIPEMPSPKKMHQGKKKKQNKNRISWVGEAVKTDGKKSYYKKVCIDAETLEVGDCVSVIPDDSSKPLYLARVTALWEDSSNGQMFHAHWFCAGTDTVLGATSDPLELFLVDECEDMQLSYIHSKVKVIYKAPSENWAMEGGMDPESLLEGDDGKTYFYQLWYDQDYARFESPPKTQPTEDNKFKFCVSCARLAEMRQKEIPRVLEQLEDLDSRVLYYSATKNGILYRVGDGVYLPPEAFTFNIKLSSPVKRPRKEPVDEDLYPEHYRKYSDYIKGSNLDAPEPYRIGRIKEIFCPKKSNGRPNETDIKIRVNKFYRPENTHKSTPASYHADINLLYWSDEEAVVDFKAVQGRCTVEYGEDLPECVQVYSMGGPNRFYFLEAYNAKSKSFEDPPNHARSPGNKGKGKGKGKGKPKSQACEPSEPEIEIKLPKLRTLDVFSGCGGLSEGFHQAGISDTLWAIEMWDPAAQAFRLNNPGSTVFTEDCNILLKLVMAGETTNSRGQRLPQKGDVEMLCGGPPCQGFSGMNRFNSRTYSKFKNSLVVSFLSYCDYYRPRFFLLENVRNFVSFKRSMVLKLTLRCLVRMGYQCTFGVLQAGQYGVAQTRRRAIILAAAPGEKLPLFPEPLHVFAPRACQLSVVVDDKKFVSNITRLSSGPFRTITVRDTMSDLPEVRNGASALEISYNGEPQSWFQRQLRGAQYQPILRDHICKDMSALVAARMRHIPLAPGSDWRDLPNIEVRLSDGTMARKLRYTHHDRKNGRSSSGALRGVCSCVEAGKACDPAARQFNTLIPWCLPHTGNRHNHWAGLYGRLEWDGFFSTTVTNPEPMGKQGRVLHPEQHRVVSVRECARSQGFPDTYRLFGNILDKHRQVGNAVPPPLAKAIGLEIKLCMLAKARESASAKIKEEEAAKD

| Structure (SMILES) | pIC50 |
| --- | --- |
| CCc1c(C#N)c(S[C@@H](C(N)=O)c2ccccc2)nc(N2CC[C@@H](N)[C@@H](O)C2)c1C#N [Example 514, (R)-2-((6-((3S,4R)-4-amino-3-hydroxypiperidin-1-yl)-3,5-dicyano-4-ethylpyridin-2-yl)thio)-2-phenylacetamide, Trifluoroacetic acid salt] | > 6.50 |

Same assay, conditions: binned activity in either the breaklight or the SPA assay

| Structure (SMILES) | DNMT1 BioChemical (pIC50 category) |
| --- | --- |
| CCc1c(C#N)c(S[C@@H](C(N)=O)c2ccccc2)nc(N(C)[C@@H]2CCOC2)c1C#N [Example 501, (R)-2-(3,5-dicyano-4-ethyl-6-(methyl((R)-tetrahydrofuran-3-yl)amino)pyridin-2-ylthio)-2-phenylacetamide] | D (Category D: ≥6.5) |
| CCc1c(C#N)c(S[C@H](C(N)=O)c2ccccc2)nc(N(C)[C@@H]2CCOC2)c1C#N [Example 502, (S)-2-(3,5-dicyano-4-ethyl-6-(methyl((R)-tetrahydrofuran-3-yl)amino)pyridin-2-ylthio)-2-phenylacetamide] | D (Category D: ≥6.5) |
| CCc1c(C#N)c(SCc2ccc(N(C)S(C)(=O)=O)cc2)nc(N2CC[C@@H](CNC(=O)CN)C2)c1C#N [Example 672, (S)-2-amino-N-((1-(3,5-dicyano-4-ethyl-6-((4-(N-methylmethylsulfonamido)benzyl)thio)pyridin-2-yl)pyrrolidin-3-yl)methyl)acetamide] | D (Category D: ≥6.5) |
| COc1c(C#N)c(SC(C(N)=O)c2ccccc2)nc(N2CC[C@H](O)C2)c1C#N (stereo partly drawn) [Example 696, 2-((3,5-dicyano-6-((S)-3-hydroxypyrrolidin-1-yl)-4-methoxypyridin-2-yl)thio)-2-phenylacetamide] | D (Category D: ≥6.5) |

Now from value to molecule:

| DNMT1 BioChemical (pIC50 category) | Structure (SMILES) |
| --- | --- |
| D (Category D: ≥6.5) | CCc1c(C#N)c(SC(C(N)=O)c2ccccc2)nc(N2CCC(C3CCN(CCO)CC3)CC2)c1C#N (stereo not shown) [Example 60, 2-((3,5-dicyano-4-ethyl-6-(1′-(2-hydroxyethyl)-[4,4′-bipiperidin]-1-yl)pyridin-2-yl)thio)-2-phenylacetamide] |
| D (Category D: ≥6.5) | CCc1c(C#N)c(SC(C(N)=O)c2ccc(F)cc2)nc(N2CCC(N(C)C3CCC3)CC2)c1C#N (stereo not shown) [Example 432, 2-((3,5-Dicyano-6-(4-(cyclobutyl(methyl)amino)piperidin-1-yl)-4-ethylpyridin-2-yl)thio)-2-(4-fluorophenyl)acetamide] |
| D (Category D: ≥6.5) | CCc1c(C#N)c(SC(C(N)=O)c2ccccc2)nc(N2CCC(NCC3(C)CC3)CC2)c1C#N (stereo not shown) [Example 473, 2-((3,5-dicyano-4-ethyl-6-(4-(((1-methylcyclopropyl)methyl)amino)piperidin-1-yl)pyridin-2-yl)thio)-2-phenylacetamide] |
| D (Category D: ≥6.5) | CCc1c(C#N)c(SC(C(N)=O)c2ccccc2)nc(N2CCC(NCCOC)CC2)c1C#N (stereo not shown) [Example 553, 2-((3,5-dicyano-4-ethyl-6-(4-((2-methoxyethyl)amino)piperidin-1-yl)pyridin-2-yl)thio)-2-phenylacetamide] |
| D (Category D: ≥6.5) | CCc1c(C#N)c(SC(C(N)=O)c2ccccc2)nc(N2CCCN(CC(O)CO)CC2)c1C#N (stereo not shown) [Example 678, 2-((3,5-dicyano-6-(4-(2,3-dihydroxypropyl)-1,4-diazepan-1-yl)-4-ethylpyridin-2-yl)thio)-2-phenylacetamide] |

Same assay, conditions: binned activity in either the breaklight or the SPA assay; read-out: DNMT1 BioChemical (pIC50 category) (converted)

| Structure (SMILES) | IC50 [nM] |
| --- | --- |
| N#Cc1c(SC(C(N)=O)c2ccccc2)nc(N2CCCN(CCO)CC2)c(C#N)c1CC(F)(F)F (stereo not shown) [Example 113, 2-({3,5-Dicyano-6-[4-(2-hydroxyethyl)-1,4-diazepan-1-yl]-4-(2,2,2-trifluoroethyl)pyridin-2-yl}sulfanyl)-2-phenylacetamide] | 316 to 1000 |
| CCc1c(C#N)c(SC(C(N)=O)c2ccccc2)nc(N2CCN(C(=O)c3ccccc3)CC2)c1C#N (stereo not shown) [Example 131, 2-((6-(4-Benzoylpiperazin-1-yl)-3,5-dicyano-4-ethylpyridin-2-yl)thio)-2-phenylacetamide] | 316 to 1000 |
| CCc1c(C#N)c(S[C@@H](C(N)=O)c2ccccc2)nc(N(C)CCOP(=O)(O)O)c1C#N [Example 421, (R)-2-((6-((2-amino-2-oxo-1-phenylethyl)thio)-3,5-dicyano-4-ethylpyridin-2-yl(methyl)amino)ethyldihydroden phosphate] | 1000 to 31600 |

Now from value to molecule:

| IC50 [nM] | Structure (SMILES) |
| --- | --- |
| 1000 to 31600 | CCc1c(C#N)c(S[C@H](C(N)=O)c2ccccc2)nc(N2CCC(C)(N)CC2)c1C#N (single isomer, unassigned) [Example 617, 2-((6-(4-amino-4-methylpiperidin-1-yl)-3,5-dicyano-4-ethylpyridin-2-yl)thio)-2-phenylacetamide] |
| 316 to 1000 | CCc1c(C#N)c(SC(C(N)=O)c2ccccc2)nc(N2CC[C@@]3(CCCN3S(C)(=O)=O)[C@@H](O)C2)c1C#N (stereo partly drawn) [Example 132, 2-((3,5-Dicyano-4-ethyl-6-((5S,6S)-6-hydroxy-1-(methylsulfonyl)-1,8-diazaspiro[4.5]decan-8-yl)pyridin-2-yl)thio)-2-phenylacetamide] |
| 316 to 1000 | CCc1c(C#N)c(SC(C(N)=O)c2ccccc2)nc(N2CCN(CCN3CCCC3)CC2)c1C#N (stereo not shown) [Example 304, 2-((3,5-Dicyano-4-ethyl-6-(4-(2-(pyrrolidin-1-yl)ethyl)piperazin-1-yl)pyridin-2-yl)thio)-2-phenylacetamide] |

Same assay, conditions: breaklight assay and/or SPA assay, repeated experimental runs; read-out: average pIC50 against DNMT1 (converted)

| IC50 | Structure (SMILES) |
| --- | --- |
| ≥ 1000 nM and 2510 nM | CCc1c(C#N)c(S[C@H](C(N)=O)c2ccccc2)nc(N2CCC(C)(N)CC2)c1C#N (single isomer, unassigned) [Example 617, 2-((6-(4-amino-4-methylpiperidin-1-yl)-3,5-dicyano-4-ethylpyridin-2-yl)thio)-2-phenylacetamide] |
| 316 to 1000 nM | CCc1c(C#N)c(SC(C(N)=O)c2ccccc2)nc(N2CCN(C(=O)c3ccccc3)CC2)c1C#N (stereo not shown) [Example 131, 2-((6-(4-Benzoylpiperazin-1-yl)-3,5-dicyano-4-ethylpyridin-2-yl)thio)-2-phenylacetamide] |
| 316 to 1000 nM | CCc1c(C#N)c(SC(C(N)=O)c2ccccc2)nc(N2CC[C@@]3(CCCN3S(C)(=O)=O)[C@@H](O)C2)c1C#N (stereo partly drawn) [Example 132, 2-((3,5-Dicyano-4-ethyl-6-((5S,6S)-6-hydroxy-1-(methylsulfonyl)-1,8-diazaspiro[4.5]decan-8-yl)pyridin-2-yl)thio)-2-phenylacetamide] |

— patent publication US10975056B2 (GlaxoSmithKline Intellectual Property Development Limited, priority 2016, dated 2021)
